This passage reports DC50 and Dmax results from patent US20260274832A1, “COMPOUNDS AND THEIR USE IN TREATING CANCER” (ASTRAZENECA AB, priority 2023, published 2026).

The target of test [1] is T1, AR (AR-full length) in LNCaP cells (Homo sapiens, UniProt P10275, T878A).
T1 construct: the prostate cancer cell line LNCaP (expressing AR-full length); endogenous in cells; host or cells: LNCaP
Briefly: LNCaP Androgen Receptor Imaging Assay (immunofluorescence of endogenous nuclear AR). It is filed as cell-based. The settings on record: 24 h incubation; for DC50: concentration giving 50% of maximum degradation of AR per curve fit, single experiment or average of two or more; for Dmax: LNCaP, maximum degradation observed, normalized as % of positive control (prior art AR PROTAC at 3 μM). A digest of the protocol:
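LNCaP cells (12,000/well) received a 12-point compound dose series (0.3% DMSO) for 24 h at 37° C., then were PFA-fixed and stained for AR (AR441) and nuclei (DRAQ5). Nuclear AR was quantified by imaging, normalized to a 3 μM AR PROTAC control; DC50 and Dmax came from Hill/bell curve fits.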

The target of test [2] is T2, AR (L702H) in LNCaP cells (Homo sapiens, UniProt P10275, L702H/T878A).
T2 construct: engineered to introduce the mutation L702H into the AR gene using CRISPR/Cas9; endogenous in cells; host or cells: LNCaP cells edited by CRISPR/Cas9 at the AR gene
Briefly: LNCaP Androgen Receptor L702H Imaging Assay (LNCaP cells engineered by CRISPR/Cas9). Format: cell-based. The settings on record: LNCaP cells with AR L702H mutation, 24 h incubation; for DC50: concentration giving 50% of maximum degradation of AR (L702H) per curve fit; for Dmax: LNCaP, maximum degradation observed, normalized as % of positive control. A digest of the protocol: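 CRISPR-engineered LNCaP cells carrying AR L702H were treated 24 h at 37 °C with a 12-point compound dose response (0.3% DMSO), then fixed and immunostained for AR with DRAQ5 nuclear counterstain. Nuclear AR was quantified by imaging, normalized to positive control; DC50 and Dmax came from Hill or bell-shaped fits.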

T2 sequence (P10275 whole entry L702H/T878A): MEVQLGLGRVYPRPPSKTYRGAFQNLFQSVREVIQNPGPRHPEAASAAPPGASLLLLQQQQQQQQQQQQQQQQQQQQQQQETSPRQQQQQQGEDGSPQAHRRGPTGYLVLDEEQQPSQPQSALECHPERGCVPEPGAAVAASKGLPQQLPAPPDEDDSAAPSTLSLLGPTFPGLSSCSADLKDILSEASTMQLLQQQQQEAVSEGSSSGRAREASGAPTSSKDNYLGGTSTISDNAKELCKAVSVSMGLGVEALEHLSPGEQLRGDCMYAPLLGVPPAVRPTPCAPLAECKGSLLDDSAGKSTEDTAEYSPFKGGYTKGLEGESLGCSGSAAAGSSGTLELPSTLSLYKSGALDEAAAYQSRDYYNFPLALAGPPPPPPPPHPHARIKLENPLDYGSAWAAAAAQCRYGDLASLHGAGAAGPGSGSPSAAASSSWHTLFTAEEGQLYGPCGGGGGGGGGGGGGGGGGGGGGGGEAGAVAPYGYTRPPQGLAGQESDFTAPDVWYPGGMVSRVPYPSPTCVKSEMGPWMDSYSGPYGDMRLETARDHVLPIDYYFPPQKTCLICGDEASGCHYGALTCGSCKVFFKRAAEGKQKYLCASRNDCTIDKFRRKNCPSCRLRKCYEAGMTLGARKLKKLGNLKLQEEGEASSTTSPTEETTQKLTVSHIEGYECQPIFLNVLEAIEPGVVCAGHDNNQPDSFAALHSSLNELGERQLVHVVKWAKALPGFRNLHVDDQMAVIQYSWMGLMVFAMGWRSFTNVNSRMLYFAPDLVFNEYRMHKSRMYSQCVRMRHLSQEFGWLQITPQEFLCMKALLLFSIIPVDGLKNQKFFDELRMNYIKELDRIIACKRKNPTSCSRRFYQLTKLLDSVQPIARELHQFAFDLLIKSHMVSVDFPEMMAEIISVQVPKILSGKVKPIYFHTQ
T2 sequence (Q96SW2 whole entry partner): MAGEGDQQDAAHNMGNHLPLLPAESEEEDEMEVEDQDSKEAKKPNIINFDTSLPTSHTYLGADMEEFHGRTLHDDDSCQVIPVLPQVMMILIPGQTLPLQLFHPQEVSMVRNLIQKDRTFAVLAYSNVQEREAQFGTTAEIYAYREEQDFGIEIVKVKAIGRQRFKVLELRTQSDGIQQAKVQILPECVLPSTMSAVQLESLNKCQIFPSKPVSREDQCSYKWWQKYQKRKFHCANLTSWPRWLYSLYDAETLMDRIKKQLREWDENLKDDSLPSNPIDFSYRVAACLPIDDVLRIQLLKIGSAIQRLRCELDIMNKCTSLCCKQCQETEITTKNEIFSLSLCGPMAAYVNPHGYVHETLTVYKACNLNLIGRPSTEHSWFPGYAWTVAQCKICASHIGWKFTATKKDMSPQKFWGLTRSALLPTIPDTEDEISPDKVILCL
T1 sequence (P10275 whole entry T878A): as the sequence (P10275 whole entry L702H/T878A) above, with H702L counted along it
T1 sequence (Q96SW2 whole entry partner): as the sequence (Q96SW2 whole entry partner) above

Take `N#Cc1cc(C(=O)NC2CCN(c3ccc(Cl)c4c(C#N)c[nH]c34)CC2)ccc1N1CCC(CN2CCC(n3ccc4c(N5CCC(=O)NC5=O)cccc43)CC2)CC1` [Example 165, N-[1-(4-Chloro-3-cyano-1H-indol-7-yl)piperidin-4-yl]-3-cyano-4-[4-({4-[4-(2,4-dioxo-1,3-diazinan-1-yl)-1H-indol-1-yl]piperidin-1-yl}methyl)piperidin-1-yl]benzamide]: in test [1], half-maximal degradation (DC50) was put at 2 nM and the Dmax was 106%. In test [2], the half-maximal degradation concentration (DC50) was determined as 2 nM and the Dmax came to 115%.
Regarding `N#Cc1c[nH]c2c(N3CCC(NC(=O)c4ccc(N5CCC(N6CCN(c7cc8c(cc7F)C(=O)N(C7CCC(=O)NC7=O)C8=O)CC6)CC5)cn4)CC3)ccc(Cl)c12` (stereo not drawn) [Example 166, N-[1-(4-Chloro-3-cyano-1H-indol-7-yl)piperidin-4-yl]-5-(4-{4-[2-(2,6-dioxopiperidin-3-yl)-6-fluoro-1,3-dioxo-2,3-dihydro-1H-isoindol-5-yl]piperazin-1-yl}piperidin-1-yl)pyridine-2-carboxamide], in test [1], the half-maximal degradation concentration (DC50) came to 4 nM and the Dmax amounted to 85%. Also, in test [2], it took 37 nM to reach half-maximal degradation (DC50) and the Dmax was 92%.
Taken in the same sequence, the figures for `N#Cc1c[nH]c2c(N3CCC(NC(=O)c4ccc(N5CCC(CN6CCC(n7ccc8c(N9CCC(=O)NC9=O)cccc87)CC6)CC5)cn4)CC3)ccc(Cl)c12` [Example 167, N-[1-(4-Chloro-3-cyano-1H-indol-7-yl)piperidin-4-yl]-5-[4-({4-[4-(2,4-dioxo-1,3-diazinan-1-yl)-1H-indol-1-yl]piperidin-1-yl}methyl)piperidin-1-yl]pyridine-2-carboxamide] were 1 nM, 101%, 2 nM and 100%.
Taken in the same sequence, the figures for `N#Cc1c[nH]c2c(N3CCC(NC(=O)c4ccc(N5CCC(CN6CCN(c7ccc8c(c7)CN(C7CCC(=O)NC7=O)C8=O)CC6)CC5)cn4)CC3)ccc(Cl)c12` (stereo not drawn) [Example 168, N-[1-(4-Chloro-3-cyano-1H-indol-7-yl)piperidin-4-yl]-5-[4-({4-[2-(2,6-dioxopiperidin-3-yl)-1-oxo-2,3-dihydro-1H-isoindol-5-yl]piperazin-1-yl}methyl)piperidin-1-yl]pyridine-2-carboxamide] were 1 nM, 87%, 2 nM and 96%.
The like results for `N#Cc1c[nH]c2c(N3CCC(NC(=O)c4ccc(N5CCC(CN6CCN(c7cc8c(cc7F)C(=O)N(C7CCC(=O)NC7=O)C8=O)CC6)CC5)cn4)CC3)ccc(Cl)c12` (stereo not drawn) [Example 169, N-[1-(4-Chloro-3-cyano-1H-indol-7-yl)piperidin-4-yl]-5-[4-({4-[2-(2,6-dioxopiperidin-3-yl)-6-fluoro-1,3-dioxo-2,3-dihydro-1H-isoindol-5-yl]piperazin-1-yl}methyl)piperidin-1-yl]pyridine-2-carboxamide] were, in that order, 5 nM, 86%, 23 nM and 94%.
For `N#Cc1n[nH]c2c(N3CCC(NC(=O)c4ccc(N5CCC(CN6CCC(n7ccc8c(N9CCC(=O)NC9=O)cccc87)CC6)CC5)cn4)CC3)ccc(Cl)c12` [Example 170, N-[1-(4-Chloro-3-cyano-1H-indazol-7-yl)piperidin-4-yl]-5-[4-({4-[4-(2,4-dioxo-1,3-diazinan-1-yl)-1H-indol-1-yl]piperidin-1-yl}methyl)piperidin-1-yl]pyridine-2-carboxamide], in test [1], the half-maximal degradation concentration (DC50) amounted to 1 nM and the Dmax amounted to 100%. In addition, in test [2], the half-maximal degradation concentration (DC50) stood at 2 nM and the Dmax is 101%.
For the compound `Cc1ccc(N2CCC(NC(=O)c3ccc(N4CCC(CN5CCN(c6cc7c(cc6F)C(=O)N(C6CCC(=O)NC6=O)C7=O)CC5)CC4)cn3)CC2)c2[nH]cc(C#N)c12` (stereo not drawn) [Example 171, N-[1-(3-Cyano-4-methyl-1H-indol-7-yl)piperidin-4-yl]-5-[4-({4-[2-(2,6-dioxopiperidin-3-yl)-6-fluoro-1,3-dioxo-2,3-dihydro-1H-isoindol-5-yl]piperazin-1-yl}methyl)piperidin-1-yl]pyridine-2-carboxamide], the DC50 worked out at 5 nM in test [1] and 36 nM in test [2]. For the same compound, the Dmax worked out at 96% in test [1] and 85% in test [2].
As for `Cc1ccc(N2CCC(NC(=O)c3ccc(N4CCC(CN5CCN(c6ccc7c(c6)CN(C6CCC(=O)NC6=O)C7=O)CC5)CC4)cn3)CC2)c2[nH]cc(C#N)c12` (stereo not drawn) [Example 172, N-[1-(3-Cyano-4-methyl-1H-indol-7-yl)piperidin-4-yl]-5-[4-({4-[2-(2,6-dioxopiperidin-3-yl)-1-oxo-2,3-dihydro-1H-isoindol-5-yl]piperazin-1-yl}methyl)piperidin-1-yl]pyridine-2-carboxamide], in test [1], the half-maximal degradation concentration (DC50) was found to be 1 nM and the Dmax is 94%. In test [2], the 50% degradation concentration (DC50) worked out at 4 nM and the Dmax was 94%.
Turning to `N#Cc1c[nH]c2c(N3CCC(NC(=O)c4ccc(N5CCC(CN6CCC(n7ccc8c(N9CCC(=O)NC9=O)cccc87)CC6)CC5)cc4)CC3)ccc(Cl)c12` [Example 173, N-[1-(4-Chloro-3-cyano-1H-indol-7-yl)piperidin-4-yl]-4-[4-({4-[4-(2,4-dioxo-1,3-diazinan-1-yl)-1H-indol-1-yl]piperidin-1-yl}methyl)piperidin-1-yl]benzamide], in test [1], half-maximal degradation (DC50) was put at 1 nM and the Dmax was 102%. Further, in test [2], it took 2 nM to reach half-maximal degradation (DC50) and the Dmax was 109%.
`N#Cc1c[nH]c2c(C3CCC(NC(=O)c4ccc(N5CCC(CN6CCC(n7ccc8c(N9CCC(=O)NC9=O)cccc87)CC6)CC5)cc4F)CC3)ccc(Cl)c12` (stereo not drawn) [Example 174, N-[4-(4-Chloro-3-cyano-1H-indol-7-yl)cyclohexyl]-4-[4-({4-[4-(2,4-dioxo-1,3-diazinan-1-yl)-1H-indol-1-yl]piperidin-1-yl}methyl)piperidin-1-yl]-2-fluorobenzamide]: in test [1], half-maximal degradation (DC50) was put at 3 nM and the Dmax amounted to 106%. Also, in test [2], the half-maximal degradation concentration (DC50) was determined as 13 nM and the Dmax came to 104%.
In the case of `N#Cc1c[nH]c2c(N3CCC(NC(=O)c4c(F)cc(N5CCC(CN6CCC(n7ccc8c(N9CCC(=O)NC9=O)cccc87)CC6)CC5)cc4F)CC3)ccc(Cl)c12` [Example 175, N-[1-(4-Chloro-3-cyano-1H-indol-7-yl)piperidin-4-yl]-4-[4-({4-[4-(2,4-dioxo-1,3-diazinan-1-yl)-1H-indol-1-yl]piperidin-1-yl}methyl)piperidin-1-yl]-2,6-difluorobenzamide], in test [1], the DC50 came out at 1 nM and the Dmax was 107%. In test [2], it took 1 nM to reach half-maximal degradation (DC50) and the Dmax was determined as 109%.
In the case of `N#Cc1c[nH]c2c(N3CCC(NC(=O)c4cnc(N5CCC(CN6CCC(n7ccc8c(N9CCC(=O)NC9=O)cccc87)CC6)CC5)cn4)CC3)ccc(Cl)c12` [Example 176, N-[1-(4-Chloro-3-cyano-1H-indol-7-yl)piperidin-4-yl]-5-[4-({4-[4-(2,4-dioxo-1,3-diazinan-1-yl)-1H-indol-1-yl]piperidin-1-yl}methyl)piperidin-1-yl]pyrazine-2-carb oxamide], the half-maximal degradation concentration (DC50) in test [1] is 1 nM; in test [2] it was 3 nM. Further, the Dmax in test [1] was found to be 104%; in test [2] it was 102%.
On to `N#Cc1c[nH]c2c(N3CCC(NC(=O)c4ncc(N5CCC(CN6CCC(n7ccc8c(N9CCC(=O)NC9=O)cccc87)CC6)CC5)cn4)CC3)ccc(Cl)c12` [Example 177, N-[1-(4-Chloro-3-cyano-1H-indol-7-yl)piperidin-4-yl]-5-[4-({4-[4-(2,4-dioxo-1,3-diazinan-1-yl)-1H-indol-1-yl]piperidin-1-yl}methyl)piperidin-1-yl]pyrimidine-2-carboxamide], for which, in test [1], the 50% degradation concentration (DC50) was determined as 2 nM and the Dmax came out at 107%. In addition, in test [2], it took 15 nM to reach half-maximal degradation (DC50) and the Dmax stood at 40%.
As for `Cc1cc(N2CCC(CN3CCC(n4ccc5c(N6CCC(=O)NC6=O)cccc54)CC3)CC2)ccc1C(=O)NC1CCN(c2ccc(Cl)c3c(C#N)c[nH]c23)CC1` [Example 178, N-[1-(4-Chloro-3-cyano-1H-indol-7-yl)piperidin-4-yl]-4-[4-({4-[4-(2,4-dioxo-1,3-diazinan-1-yl)-1H-indol-1-yl]piperidin-1-yl}methyl)piperidin-1-yl]-2-methylbenzamide], the DC50 in test [1] and in test [2] was 2 nM throughout. The figures for the Dmax in test [1] and in test [2] were 106% and 107%, respectively.
Take `N#Cc1c[nH]c2c(N3CCC(NC(=O)c4ccc(N5CCC(CN6CCC(n7ccc8c(N9CCC(=O)NC9=O)cccc87)CC6)CC5)nn4)CC3)ccc(Cl)c12` [Example 179, N-[1-(4-Chloro-3-cyano-1H-indol-7-yl)piperidin-4-yl]-6-[4-({4-[4-(2,4-dioxo-1,3-diazinan-1-yl)-1H-indol-1-yl]piperidin-1-yl}methyl)piperidin-1-yl]pyridazine-3-carboxamide]: in test [1], half-maximal degradation (DC50) was put at 1 nM and the Dmax worked out at 103%. Moreover, in test [2], the DC50 was 1 nM and the Dmax is 108%.
